Earlier results on one compound are cited in PubChem BioAssay AID1259409 (Chemical Carcinogenesis Research Information System (CCRIS), 2018).

For this series, the system named is rodent chemically induced tumor inhibition, incidence and multiplicity. Description: CCRIS tumor inhibitor studies. Conditions: Carcinogen: 7,12-DIMETHYLBENZ[A]ANTHRACENE, 57-97-6.

For the compound `CC1=C(/C=C/C(C)=C/C=C/C(C)=C/C(=O)O)C(C)(C)CCC1`, the “tumour outcome (control, treated, inhibition, significance)” value runs as follows: (Dose [Inhibitor]: 0, 10 UG IN 0.2 ML ACETONE 2/WK FOR 20 WK APPLIED 60 MIN PRIOR TO EACH PROMOTER DOSE BEGINNING 1 WK POST CARCINOGEN DOSE, Route [Inhibitor]: DERMAL, Species: MOUSE, Strain/Sex: SENCAR/FEMALE, Target Tissue: Type of Lesion: SKIN: PAPILLOMA, Dose [Carcinogen]: 20 UG IN 0.2 ML ACETONE ONCE, Promoter: MEZEREIN, 34807-41-5) 86%, 56%, 35%, p<0.05; (Dose [Inhibitor]: 0, 30 UG/G OF DIET FOR DURATION OF STUDY (STUDY DURATION: 35 WK), Route [Inhibitor]: ORAL, Species: MOUSE, Strain/Sex: SENCAR/FEMALE, Target Tissue: Type of Lesion: SKIN: PAPILLOMA, Dose [Carcinogen]: 25.5 UG IN 0.2 ML ACETONE 1/WK FOR 20 WK, Promoter: NONE USED) 100%, 90%, 10%, not significant (at 20 wk); (Dose [Inhibitor]: 0, 30 UG/G OF DIET FOR DURATION OF STUDY (STUDY DURATION: 35 WK), Route [Inhibitor]: ORAL, Species: RAT, Strain/Sex: SENCAR/FEMALE, Target Tissue: Type of Lesion: SKIN: CARCINOMA, Dose [Carcinogen]: 25.5 UG IN 0.2 ML ACETONE 1/WK FOR 20 WK, Promoter: NONE USED) 24%, 19%, 21%, not significant; (Dose [Inhibitor]: 0, 30 UG/G OF DIET FOR DURATION OF STUDY (STUDY DURATION: 40 WK), Route [Inhibitor]: ORAL, Species: MOUSE, Strain/Sex: SENCAR/FEMALE, Target Tissue: Type of Lesion: SKIN: CARCINOMA, Dose [Carcinogen]: 20 UG IN 0.2 ML OF ACETONE ONCE, Promoter: 12-O-TETRADECANOYLPHORBOL-13-ACETATE, 16561-29-8) 30%, 11%, 63%, p=0.027; (Dose [Inhibitor]: 0, 30 UG/G OF DIET FOR DURATION OF STUDY (STUDY DURATION: 40 WK), Route [Inhibitor]: ORAL, Species: MOUSE, Strain/Sex: SENCAR/FEMALE, Target Tissue: Type of Lesion: SKIN: CARCINOMA, Dose [Carcinogen]: 20 UG IN 0.2 ML OF ACETONE ONCE, Promoter: MEZEREIN, 34807-41-5) 31%, 5%, 84%, p=0.002; (Dose [Inhibitor]: 1.7 NMOL IN 0.2 ML ACETONE 1 HR PRIOR TO EACH PROMOTER DOSE FOR 12 WK (STUDY DURATION: 14 WK), Route [Inhibitor]: DERMAL, Species: MOUSE, Strain/Sex: SENCAR/FEMALE, Target Tissue: Type of Lesion: SKIN: PAPILLOMA, Dose [Carcinogen]: 200 NMOL IN 0.2 ML ACETONE ONCE, Promoter: 12-O-TETRADECANOYLPHORBOL-13-ACETATE, 16561-29-8) 100%, 100%, 0%, not calculated. The “tumour outcome (control, treated, inhibition, significance)” value is given as 94%, 80%, 15%, not calculated (Dose [Inhibitor]: 1.7 NMOL IN 0.2 ML ACETONE 1 HR PRIOR TO EACH PROMOTER DOSE FOR 20 WK (STUDY DURATION: 22 WK), Route [Inhibitor]: DERMAL, Species: MOUSE, Strain/Sex: CD-1/FEMALE, Target Tissue: Type of Lesion: SKIN: PAPILLOMA, Dose [Carcinogen]: 200 NMOL IN 0.2 ML ACETONE ONCE, Promoter: 12-O-TETRADECANOYLPHORBOL-13-ACETATE, 16561-29-8); 100%, 90%, 10%, not significant (Dose [Inhibitor]: 1.7 NMOL IN 0.2 ML ACETONE 2/WK 1 HR BEFORE EACH PROMOTER APPLICATION STARTING 14 D AFTER CARCINOGEN APPLICATION AND CON, Route [Inhibitor]: DERMAL, Species: MOUSE, Strain/Sex: CD-1/FEMALE, Target Tissue: Type of Lesion: SKIN: PAPILLOMA, Dose [Carcinogen]: 0.2 UMOL IN 0.2 ML ACETONE ONCE, Promoter: 12-O-TETRADECANOYLPHORBOL-13-ACETATE, 16561-29-8); 100%, 100%, 0%, not significant (Dose [Inhibitor]: 3, 30 UG IN DIET FOR DURATION OF STUDY (STUDY DURATION: 44 WK), Route [Inhibitor]: ORAL, Species: MOUSE, Strain/Sex: SENCAR/FEMALE, Target Tissue: Type of Lesion: SKIN: PAPILLOMA, Dose [Carcinogen]: 20 UG IN 0.2 ML ACETONE ONCE, Promoter: 12-O-TETRADECANOYLPHORBOL-13-ACETATE, 16561-29-8); 12/38 (32%), 3/30 (10%), 69%, p<0.05 (Dose [Inhibitor]: 3, 30 UG/G OF DIET FOR DURATION OF STUDY BEGINNING POST CARCINOGEN DOSE (STUDY DURATION: 40 WK), Route [Inhibitor]: ORAL, Species: MOUSE, Strain/Sex: SENCAR/FEMALE, Target Tissue: Type of Lesion: SKIN: CARCINOMA, Dose [Carcinogen]: 20 UG IN 0.2 ML ACETONE ONCE AT 7 WK OF AGE, Promoter: 12-O-TETRADECANOYLPHORBOL-13-ACETATE, 16561-29-8); 12/39 (31%), 5/40 (13%), 58%, p<0.05 (Dose [Inhibitor]: 3, 30 UG/G OF DIET FOR DURATION OF STUDY BEGINNING POST CARCINOGEN DOSE (STUDY DURATION: 40 WK), Route [Inhibitor]: ORAL, Species: MOUSE, Strain/Sex: SENCAR/FEMALE, Target Tissue: Type of Lesion: SKIN: CARCINOMA, Dose [Carcinogen]: 20 UG IN 0.2 ML ACETONE ONCE AT 7 WK OF AGE, Promoter: MEZEREIN, 34807-41-5).
